Data on 2 compounds can be found in patent US11654167B2, “Pharmaceutical composition based on bacteriophages against F. nucleatum; use in the treatment of diseases associated with this pathogen” (priority 2016, dated 2023).

Molecules are shown by their SMILES.

Assay [1] concerns F. nucleatum. Kind of assay: in vivo bacteria count of F. nucleatum in co-infected rats. Also noted: species or system Sprague Dawley rat. Conditions: chlorhexidine 0.12% local cleaning and/or amoxicillin (50 mg/Kg) in water.
Method: An evaluation is performed to determine the effect of these treatments on the microbiological count associated with periodontal destruction in Sprague Dawley rat models inoculated with P. gingivalis and F. nucleatum, the main pathogens of the etiology of periodontal disease.
(§1) Methodology consists in co-infecting rats with P. gingivalis and F. nucleatum, and treating or not treating them with the mixture of bacteriophages Fnpϕ02-14, Fnpϕ11 and Fnnϕ107 at different MOI. The procedure for each stage is described below:
(§2) Finally, on week 10, the sacrifice of the rats of the group is performed. The initial treatment of local cleaning with CHX 0.12% and the local administration of the bacteria mixture is performed under anesthesia for 5-10 sec. with isoflurane gas. The sacrifice of the rats was performed with an anesthesia overdose of Ketamine:Xylazine (2:1).
(§3) The mixture of the three lytic bacteriophages Fnpϕ02-14, Fnpϕ11 and Fnnϕ107, specific for F. nucleatum, is performed, with a concentration of 10^8, 10^10 and 10^8 UFP/mL, respectively. Afterwards, it was kept at 4° C. until it was used.
Each research group is composed by 3 subjects per cage, and there ware a number of 6 subjects per group. […]
Assay [2] relates to F. nucleatum. The experiment in a line: detection of F. nucleatum by PCR in co-infected rats. Format: in vivo, Sprague Dawley rat. Conditions: chlorhexidine 0.12% and/or amoxicillin.
Method: as §1, §2, §3
Each research group is composed by 3 subjects per cage, and there ware a number of 6 subjects per group. The research groups are the following: Group 1 (Continuous treatment phage), in which the administration of the mixture of bacteriophages in a multiplicity of infection (MOI) of 0.01 (1 bacteria for 100 phages) is performed, in the same inoculation times as the bacteria mixture (week 2, 4, 6 and 8), for 4 days every time. […]
The test system of assay [3] is gingival tissue associated with the first molar. The experiment in a line: histology of gingival tissue (hematoxylin-eosin), inflammatory response. Format: in vivo, Sprague Dawley rat. Conditions: chlorhexidine 0.12% and/or amoxicillin (50 mg/Kg). Here is the method:
In order to perform the analysis of gingival tissue associated with the first molar once the piece is worn out, this one is fixed in a solution of paraformaldehyde at 10% for 24 hours. Afterwards, the bone is decalcified in an […] solution for 24 hours. The decalcified tissue was soaked in paraffin blocks, in order to be cut afterwards by a microtome in transversal sections for 4μ, in order to be finally stained with the hematoxylin-eosin staining. […] The presence or absence of inflammation in the tissue was examined by using the following parameters: Hematopoietic distribution, presence of vasodilation, thickness of keratinized epithelial tissue, presence of immune cells (lymphocytes, monocytes, polymorph nuclear, etc.), prisoners of inflammatory focus and cell infiltration in keratinized epithelium. In this way, the manifestations of acute or chronic inflammatory response and the normal, incipient, or established inflammatory response were determined.

The subject of the next assay is RANKL and OPG. Kind of assay: bone reabsorption indicators RANKL and OPG in plasma by indirect ELISA. The assay is classed as in vivo, Sprague Dawley rat. Conditions: chlorhexidine 0.12% and/or amoxicillin. Here is the method:
The determination of bone reabsorption of the different subjects of treatment is performed based on measuring the molecules associated with this type of physiological response. The levels of RANKL and OPG molecules are measured by Enzyme-Linked ImmunoSorbent Assay (ELISA), specifically the ELISA indirect type, performed from a plasma sample. The blood sample was extracted as follows: the rat is deeply anesthetized with ketamine:xylazine, via the intraperitoneal route. The rat is treated with heparin 2 minutes before surgery, also via the intraperitoneal route with 200-300 μL. […]
Prior to the use of plasma, a quantification of proteins (mg/mL) of each sample is performed by the concentrated Bradford protocol (5×). […] Finally, the absorbance is measured at 595 nm in a plate reader (SQ-2800 model spectrophotometer, United Products & Instruments Inc., Dayton, USA). […]
It is mixed and protected from the light. […] Afterwards, in order to stop the reaction, 100 μL of NaOH 3N, in order to finally read the absorbency of each well at 405 nm in an ELISA reader. • In order to obtain the values of concentration for each sample, the Lambert-Beer formula was used: Abs405=ε*d*[mM]; • where ε: extinction coefficient 18.5*10^3 M^−1 cm^−1 and d: length of the well 1 cm. […]

Assay [4] has as its system alveolar bone of the first molar. The experiment in a line: bone loss of alveolar bone of the first molar. Format: in vivo, Sprague Dawley rat. Conditions: chlorhexidine 0.12% and/or amoxicillin. Here is the method: In order to determine bone loss, we measured directly the alveolar bone of the first molar in the hemi sectioned right jaw of each subject. In order to obtain the alveolar bone, the jaw extraction is performed and autoclaved for 20 min. The first cleaning is performed, removing the associated tissue. Afterwards, the bones are soaked in hydrogen peroxide at 3% for all night at room temperature. After this time, the pieces were washed with distilled water in order to eliminate any remainder of adhered tissue; the bone is brushed with toothpaste and finally washed with distilled water. Clean jaws are stained with methylene blue at 1% for 15 seconds, and then washed with distilled water to remove the excess of stain. The pieces are left to dry by air, and it is in this moment when the limit cement-enamel appears in the associated dental piece. The measure is obtained by measuring from the exposed base of the root of the tooth to the cement-enamel limit.

With `[H]/N=C(\N/C(=N/[H])NCCCCCCNC(=N)NC(=N)Nc1ccc(Cl)cc1)Nc1ccc(Cl)cc1` [chlorhexidine], the “F. nucleatum count after versus before treatment” value in the assay with F. nucleatum [1] was “tendency to reducing bacteria count”. For the same compound, the “detection of F. nucleatum by PCR, post-treatment versus pre-treatment samples” value with F. nucleatum [2] was “lower count of positive detections”. For the same compound, in assay [3], the “inflammatory response in histological sections” value is recorded as “presence of an active acute inflammatory response”. In addition, the “ratio RANKL/OPG versus control group without treatment” value with RANKL and OPG was “do not present significant differences”. The “bone loss of alveolar bone versus control group” value in assay [4] is recorded as “do not avoid bone loss”.
Regarding `CC1(C)S[C@@H]2[C@H](NC(=O)[C@H](N)c3ccc(O)cc3)C(=O)N2[C@H]1C(=O)O` [amoxicillin], the “F. nucleatum count after versus before treatment” value with F. nucleatum [1] is “only the count in the post mortem sample decreases”. The “detection of F. nucleatum by PCR, post-treatment versus pre-treatment samples” value in the assay on F. nucleatum [2] is “lower count of positive detections”. In assay [3], the “inflammatory response in histological sections” value was “presence of an acute incipient inflammatory response”. In addition, in the assay on RANKL and OPG, the “ratio RANKL/OPG versus control group without treatment” value is recorded as “present significant differences”. Besides, the “bone loss of alveolar bone versus control group” value in assay [4] was “do not avoid bone loss”.
